For 26 molecules, IC50 results are on record in US10039753B2, “Imidazo[4,5-c]quinoline and imidazo[4,5-c][1,5]naphthyridine derivatives as LRRK2 inhibitors” (Pfizer Inc., priority 2015, dated 2018).

Where a name gives a salt, the structure may show the parent alone. Read-outs that look alike come from different tables or passages of the source.

Test [1] deals with T1, GST-tagged truncated LRRK2 (Homo sapiens, UniProt Q5S007).
T1 construct: GST-tagged truncated LRRK2 from Invitrogen (Cat # PV4874); GST; purchased Invitrogen PV4874
T1 sequence (Q5S007 970-2527 limits assumed): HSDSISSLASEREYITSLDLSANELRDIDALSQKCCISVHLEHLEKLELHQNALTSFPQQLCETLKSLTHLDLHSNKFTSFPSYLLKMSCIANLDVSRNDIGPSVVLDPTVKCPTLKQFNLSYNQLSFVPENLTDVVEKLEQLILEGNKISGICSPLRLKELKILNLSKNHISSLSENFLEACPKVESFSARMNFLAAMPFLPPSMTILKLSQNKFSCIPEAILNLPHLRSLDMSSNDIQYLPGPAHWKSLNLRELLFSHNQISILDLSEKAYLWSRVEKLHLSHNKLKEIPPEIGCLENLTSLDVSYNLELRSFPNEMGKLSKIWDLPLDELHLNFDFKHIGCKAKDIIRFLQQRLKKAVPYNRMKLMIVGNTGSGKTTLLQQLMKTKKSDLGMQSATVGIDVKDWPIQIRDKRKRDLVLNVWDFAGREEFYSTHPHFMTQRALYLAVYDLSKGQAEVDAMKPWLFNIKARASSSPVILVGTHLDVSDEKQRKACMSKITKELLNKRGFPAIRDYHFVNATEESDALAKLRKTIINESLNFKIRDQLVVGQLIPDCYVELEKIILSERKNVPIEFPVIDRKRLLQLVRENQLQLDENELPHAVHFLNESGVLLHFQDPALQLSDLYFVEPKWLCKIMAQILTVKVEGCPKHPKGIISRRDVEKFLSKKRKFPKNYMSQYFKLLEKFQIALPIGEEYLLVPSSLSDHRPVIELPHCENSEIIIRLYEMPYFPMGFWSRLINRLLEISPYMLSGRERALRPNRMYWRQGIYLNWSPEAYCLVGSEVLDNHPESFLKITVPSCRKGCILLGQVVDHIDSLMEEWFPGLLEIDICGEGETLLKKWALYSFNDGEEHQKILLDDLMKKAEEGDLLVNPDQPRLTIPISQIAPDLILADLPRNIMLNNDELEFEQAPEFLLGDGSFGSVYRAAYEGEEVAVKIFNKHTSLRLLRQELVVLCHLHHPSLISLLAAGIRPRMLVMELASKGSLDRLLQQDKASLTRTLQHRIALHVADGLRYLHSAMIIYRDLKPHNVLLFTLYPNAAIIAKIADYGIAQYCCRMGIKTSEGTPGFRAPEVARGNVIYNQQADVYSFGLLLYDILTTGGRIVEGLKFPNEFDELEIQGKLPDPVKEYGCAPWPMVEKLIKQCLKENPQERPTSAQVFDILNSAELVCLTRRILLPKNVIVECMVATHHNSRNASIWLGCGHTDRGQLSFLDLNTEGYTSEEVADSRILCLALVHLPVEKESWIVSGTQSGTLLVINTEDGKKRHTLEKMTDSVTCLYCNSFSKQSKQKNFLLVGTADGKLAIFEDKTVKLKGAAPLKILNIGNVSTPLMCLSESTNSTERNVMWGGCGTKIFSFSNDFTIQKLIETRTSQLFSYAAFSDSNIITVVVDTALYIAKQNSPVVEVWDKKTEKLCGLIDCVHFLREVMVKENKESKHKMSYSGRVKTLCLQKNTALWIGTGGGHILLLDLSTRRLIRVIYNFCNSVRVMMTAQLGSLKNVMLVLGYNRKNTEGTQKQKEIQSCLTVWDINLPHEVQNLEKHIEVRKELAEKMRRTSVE
The experiment in a line: LRRK2 Assay, Format 1 (Lantha Screen), WT. Type of test: biochemical. How it is done: LRRK2 kinase activity was measured using Lantha Screen technology from Invitrogen. GST-tagged truncated LRRK2 from Invitrogen (Cat # PV4874) was incubated with a fluorescein-labeled peptide substrate based upon ezrin/radixin/moesin (ERM), also known as LRRKtide (Invitrogen cat # PR8976A), in the presence of a dose response of compound. Upon completion, the assay was stopped and detected with a terbium labeled anti-phospho-ERM antibody (Invitrogen, cat # PR8975A). […] Aliquots (3.5 μL) of the 100% DMSO dose response were mixed with 46.5 μL water then 1 μL of this mixture was added to the 3 μL substrate mix in the 384-well plate. The kinase reaction was started with 3 μL of a working solution of LRRK2 enzyme at a concentration of 4 μg/mL. […] The reaction was allowed to progress at room temperature for two hours and then stopped with the addition of 7 μL of detection buffer (20 mM Tris pH 7.6, 0.01% NP-40, 0.02% NaN3, 6 mM EDTA with 2 nM terbium labeled anti-phospho-ERM).

The target in test [2] is mutant G2019S LRRK2 (Homo sapiens, UniProt Q5S007, G2019S). Briefly: LRRK2 Assay, Format 1 (Lantha Screen), G2019S mutant.
Sequence of mutant G2019S LRRK2 (Q5S007 970-2527 G2019S limits assumed): as the sequence (Q5S007 970-2527 limits assumed) above, with G1050S counted along it
Excerpt: All final concentrations of substrate ATP and enzyme were the same.
The mark [3] stands for this setting: Format 1, wild-type LRRK2, geometric mean of 2-4 determinations unless footnoted (a: ≥5 determinations; b: single determination; c: determined on trifluoroacetate salt).
The mark [4] stands for this setting: 100 nM LRRKtide, 50 μM ATP, 1.7 μg/mL LRRK2 enzyme, two hours at room temperature.

For orientation: IC50 means the concentration at which inhibition is half-maximal. In the case of `Cc1cn(Cc2nc3cnc4ccccc4c3n2[C@@H]2CC[C@H](F)C2)nn1` [Example 27, 1-[(1R,3S)-3-fluorocyclopentyl]-2-[(4-methyl-1H-1,2,3-triazol-1-yl)methyl]-1H-imidazo[4,5-c]quinoline, formate salt], the IC50 in test [1] (setting [3]) is 188 nM; in test [2], 118 nM.
For the molecule `C[C@@H]1C[C@H](n2c(Cc3cscn3)nc3cnc4ccc(C#N)cc4c32)C[C@H](C)O1` [Example 61, 1-[(2R,4r,6S)-2,6-dimethyltetrahydro-2H-pyran-4-yl]-2-(1,3-thiazol-4-ylmethyl)-1H-imidazo[4,5-c]quinoline-8-carbonitrile], the figures for the IC50 in test [1] (setting [3]) and in test [2] were 181 nM and 67.9 nM, respectively.
For the molecule `c1ccc2c(c1)ncc1nc(Cn3cncn3)n(C3CCOCC3)c12` [Example 30, 1-(tetrahydro-2H-pyran-4-yl)-2-(1H-1,2,4-triazol-1-ylmethyl)-1H-imidazo[4,5-c]quinoline], the IC50 in test [1] (setting [3]) was 120 nM; in test [2], 146 nM.
Take `O[C@@H]1CCC[C@@H](n2c(Cc3ccon3)nc3cnc4ccccc4c32)C1` (racemic) [Example 49, trans-3-[2-(1,2-oxazol-3-ylmethyl)-1H-imidazo[4,5-c]quinolin-1-yl]cyclohexanol]: the IC50 in test [1] (setting [3]) was found to be 152 nM; in test [2], 81.2 nM.
Take `Cc1cc(Cc2nc3cnc4ccc(C#N)cc4c3n2[C@@H]2CCO[C@H](C)C2)no1` [Example 3, 2-[(5-Methyl-1,2-oxazol-3-yl)methyl]-1-[(2R,4R)-2-methyltetrahydro-2H-pyran-4-yl]-1H-imidazo[4,5-c]quinoline-8-carbonitrile]: the IC50 in test [1] (setting [3]) was 4.9 nM; in test [2], 5.1 nM.
`C[C@@H]1C[C@H](n2c(Cc3cscn3)nc3cnc4ccc(Cl)cc4c32)CCO1` [Example 10, 8-Chloro-1-[(2R,4R)-2-methyltetrahydro-2H-pyran-4-yl]-2-(1,3-thiazol-4-ylmethyl)(4-^2H)-1H-imidazo[4,5-c]quinoline]: the IC50 in test [1] (setting [3]) came to 5 nM; in test [2] (read-out: LRRK2, Format 1 G2019S IC50, Format 1, G2019S mutant LRRK2, geometric mean of 2-4 determinations unless footnoted (a: ≥5 determinations; b: single determination; c: determined on trifluoroacetate salt)), 3 nM.
Consider `C[C@H]1C[C@@H](n2c(Cn3cncn3)nc3cnc4ccc(Cl)cc4c32)CCO1` [enantiomer of Example 65, 8-chloro-1-[(2S,4S)-2-methyltetrahydro-2H-pyran-4-yl]-2-(1H-1,2,4-triazol-1-ylmethyl)-1H-imidazo[4,5-c]quinoline], for which the IC50 in test [1] (setting [4]) was 687 nM; in test [2] it was 241 nM.
As to `Fc1ccc2ncc3nc(Cc4cscn4)n(C4CCOCC4)c3c2c1` [Example 77, 8-fluoro-1-(tetrahydro-2H-pyran-4-yl)-2-(1,3-thiazol-4-ylmethyl)-1H-imidazo[4,5-c]quinoline, trifluoroacetate salt], the values for the IC50 in test [1] (setting [3]) and in test [2] were 74.6 nM and 62.5 nM, respectively.
As for `C[C@H]1C[C@@H](n2c(Cc3cn4ncsc4n3)nc3cnc4ccc(F)cc4c32)CCO1` (racemic) [Example 86, 8-fluoro-2-(imidazo[2,1-b][1,3,4]thiadiazol-6-ylmethyl)-1-(cis-2-methyltetrahydro-2H-pyran-4-yl)-1H-imidazo[4,5-c]quinoline], the IC50 in test [1] (setting [3]) was 7.6 nM; in test [2], 5.6 nM.
On to `C[C@@H]1C[C@H](n2c(CC#N)nc3cnc4ccc(Cl)cc4c32)CCO1` [Example 9, {8-Chloro-1-[(2R,4R)-2-methyltetrahydro-2H-pyran-4-yl]-1H-imidazo[4,5-c]quinolin-2-yl}acetonitrile], for which the values for the IC50 in test [1] (setting [3]) and in test [2] were 6.3 nM and 6.4 nM, respectively.
For `Fc1ccc2ncc3nc(Cn4cc(C(F)(F)F)nn4)n(C4CCOCC4)c3c2c1` [Example 74, 8-fluoro-1-(tetrahydro-2H-pyran-4-yl)-2-{[4-(trifluoromethyl)-1H-1,2,3-triazol-1-yl]methyl}-1H-imidazo[4,5-c]quinoline, trifluoroacetate salt], the IC50 is 112 nM in test [1] (setting [3]) and 102 nM in test [2].
The matching figures for `CC1(C)CC(n2c(Cn3cc(C4CC4)nn3)nc3cnc4ccc(F)cc4c32)CCO1` (stereo not shown) [Example 79, 2-[(4-cyclopropyl-1H-1,2,3-triazol-1-yl)methyl]-1-(2,2-dimethyltetrahydro-2H-pyran-4-yl)-8-fluoro-1H-imidazo[4,5-c]quinoline, trifluoroacetate salt]: 53.8 nM and 47.3 nM.
Take `COc1ccc2ncc3nc(Cc4cn5ncsc5n4)n([C@H]4CCO[C@@H](C)C4)c3c2c1` [enantiomer of Example 90, 2-(imidazo[2,1-b][1,3,4]thiadiazol-6-ylmethyl)-8-methoxy-1-[(2S,4S)-2-methyltetrahydro-2H-pyran-4-yl]-1H-imidazo[4,5-c]quinoline]: the IC50 was 623 nM in test [1] (setting [4]) and 245 nM in test [2].
Take `c1ccc2c(c1)ncc1nc(Cc3ccon3)n(C3CCCCC3)c12` [Example 50, 1-cyclohexyl-2-(1,2-oxazol-3-ylmethyl)-1H-imidazo[4,5-c]quinoline]: the IC50 in test [1] (setting [3]) worked out at 127 nM; in test [2], 57.7 nM.
In the case of `c1ccc2c(c1)ncc1nc(Cn3cnnn3)n(C3CCOCC3)c12` [Example 35, 1-(tetrahydro-2H-pyran-4-yl)-2-(1H-tetrazol-1-ylmethyl)-1H-imidazo[4,5-c]quinoline], the IC50 in test [1] (setting [3]) came out at 152 nM; in test [2], 211 nM.
For the molecule `CC(C)c1cn(Cc2nc3cnc4ccccc4c3n2C2CCOCC2)nn1` [Example 44, 2-{[4-(propan-2-yl)-1H-1,2,3-triazol-1-yl]methyl}-1-(tetrahydro-2H-pyran-4-yl)-1H-imidazo[4,5-c]quinoline], the IC50 in test [1] (setting [3]) is 62.5 nM; in test [2] it was 72.2 nM.
Take `C[C@@H]1C[C@H](n2c(Cc3cn4ncsc4n3)nc3cnc4ccc(Cl)cc4c32)CCO1` [Example 8, 8-Chloro-2-(imidazo[2,1-b][1,3,4]thiadiazol-6-ylmethyl)-1-[(2R,4R)-2-methyltetrahydro-2H-pyran-4-yl]-1H-imidazo[4,5-c]quinoline]: the IC50 in test [1] (setting [3]) was found to be 4.4 nM; in test [2], 3.1 nM.
As for `c1ccc2c(c1)ncc1nc(Cc3cn4ncsc4n3)n(C3CCOCC3)c12` [Example 69, 2-(imidazo[2,1-b][1,3,4]thiadiazol-6-ylmethyl)-1-(tetrahydro-2H-pyran-4-yl)-1H-imidazo[4,5-c]quinoline], the values for the IC50 in test [1] (setting [3]) and in test [2] were 78.2 nM and 82.4 nM, respectively.
For `c1ccc2nn(Cc3nc4cnc5ccccc5c4n3C3CCOCC3)cc2c1` [Example 45, 2-(2H-indazol-2-ylmethyl)-1-(tetrahydro-2H-pyran-4-yl)-1H-imidazo[4,5-c]quinoline], the IC50 in test [1] (setting [3]) is 61.1 nM; in test [2], 52.9 nM.
Turning to `CC1(C)CC(n2c(Cc3cscn3)nc3cnc4ccccc4c32)CCO1` (stereo not shown) [Example 72, 1-(2,2-dimethyltetrahydro-2H-pyran-4-yl)-2-(1,3-thiazol-4-ylmethyl)-1H-imidazo[4,5-c]quinoline, trifluoroacetate salt], the figures for the IC50 in test [1] (setting [3]) and in test [2] were 156 nM and 170 nM, respectively.
On to `C[C@@H]1C[C@@H](n2c(Cc3ccon3)nc3cnc4ccc(C#N)cc4c32)CCO1` [enantiomer of Example 24, 1-[(2R,4S)-2-methyltetrahydro-2H-pyran-4-yl]-2-(1,2-oxazol-3-ylmethyl)-1H-imidazo[4,5-c]quinoline-8-carbonitrile], for which the figures for the IC50 in test [1] (setting [4]) and in test [2] were 267 nM and 134 nM, respectively.
Take `CC(C)(O)c1cn(Cc2nc3cnc4ccccc4c3n2C2CCOCC2)nn1` [Example 40, 2-(1-{[1-(tetrahydro-2H-pyran-4-yl)-1H-imidazo[4,5-c]quinolin-2-yl]methyl}-1H-1,2,3-triazol-4-yl)propan-2-ol]: the IC50 in test [1] (setting [3]) came to 141 nM; in test [2] it was 120 nM.
For `F[C@@H]1CC[C@H](n2c(Cc3ccon3)nc3cnc4ccc(Br)cc4c32)C1` [Example 25, 8-bromo-1-[(1S,3R)-3-fluorocyclopentyl]-2-(1,2-oxazol-3-ylmethyl)-1H-imidazo[4,5-c]quinoline, formate salt], the IC50 in test [1] (setting [3]) was determined as 56.3 nM; in test [2], 30.8 nM.
For `Clc1cn2cc(Cc3nc4cnc5ccccc5c4n3C3CCOCC3)nc2s1` [Example 71, 2-[(2-chloroimidazo[2,1-b][1,3]thiazol-6-yl)methyl]-1-(tetrahydro-2H-pyran-4-yl)-1H-imidazo[4,5-c]quinoline, trifluoroacetate salt], the IC50 is 106 nM in test [1] (setting [3]) and 120 nM in test [2].
Consider `C[C@H]1C[C@H](n2c(Cc3ccon3)nc3cnc4ccc(C#N)cc4c32)CCO1` [Example 24, 1-[(2S,4R)-2-methyltetrahydro-2H-pyran-4-yl]-2-(1,2-oxazol-3-ylmethyl)-1H-imidazo[4,5-c]quinoline-8-carbonitrile], for which the IC50 in test [1] (setting [3]) stood at 72 nM; in test [2], 62 nM.
In the case of `C[C@H]1C[C@@H](n2c(Cc3cscn3)nc3cnc4ccc(C#N)cc4c32)CCO1` [enantiomer of Example 57, 1-[(2S,4S)-2-methyltetrahydro-2H-pyran-4-yl]-2-(1,3-thiazol-4-ylmethyl)-1H-imidazo[4,5-c]quinoline-8-carbonitrile], the IC50 was determined as 382 nM in test [1] (setting [4]) and 196 nM in test [2].
